Reference: patent US20240124408A1 (Sanofi, priority 2020, published 2024)

Key:
human TRPM8 = molecular target: T1, human TRPM8 (Homo sapiens, UniProt Q7Z2W7); assay: In vitro human TRPM8 fluorescence calcium flux assay (recombinant CHO cells, Fluo4-AM, FDSS6000); assay type: cell-based; settings: recombinant CHO cells expressing human TRPM8; menthol-related EC50, normalized to 100 μM menthol
T1 construct: expressed in transfected cells; host or cells: CHO (p658 mammalian expression vector)
Description: (§1) In Vitro Pig and Human TRPM8 Fluorescence Calcium Flux Assays
(§2) For functional expression of TRPM8, the full-length cDNA encoding human (NM_024080) and pig (XM_001927892.1) TRPM8 sequences were subcloned into p658 and pcDNA5/FRT/TO mammalian expression vectors, respectively. Engineered recombinant CHO cell lines expressing human or pig TRPM8 were generated. Culture media was Ham-F12 with 10% FCS for both lines, and for the pig cell line only 400 μg/ml hygromycin B and 30 μg/mL blasticidin were added as selection antibiotics (all reagents were obtained from Invitrogen, Fisher Scientific). Cells were grown in culture flasks up to 80% confluence where they were harvested using accutase (Sigma, MO, USA) to detach the cells by enzymatic dissociation and either seeded directly into assay plates or cryopreserved for future use.
(§3) For calcium flux assays, cells were plated into clear base poly-D-lysine coated 384-well plates (BD Biosciences, NJ USA) at a density of 15,000 cells per well in appropriate culture medium and grown overnight. The following day, all medium was removed then the cells were incubated with 2 μM of Fluo4-AM Dye (Molecular Probes) prepared in complete HBSS assay buffer containing 20 mM HEPES, 0.1% BSA, and 2.5 mM probenecid at room temperature for one hour. Following incubation, plates were inserted into a FDSS6000 instrument (Hamamatsu, Photonics, Japan) instrument, where cells were challenged with compounds of the formula (at varying concentrations) and intracellular calcium was measured kinetically for 3 min after addition.
(§4) This protocol allowed the determination of an EC50 value, from the sixteen-point dose response data, for each compound of the formula tested. Maximal fluorescence intensity achieved upon addition of 100 μM menthol (stock solution prepared in ethanol from solid, Sigma-Aldrich) was exported from the FDSS and further analyzed using IDBS XLFit 5. Data were normalized to the average 100 μM menthol response (maximum control wells) included in each plate. The dose response curves from the average of wells for each data point were analyzed by using nonlinear regression of sigmoidal dose response (formula 205). Finally, the (menthol-related) EC50 values (Half maximal effective concentration) were calculated with the best-fit dose curve determined by IDBS XLFit 5 software.

pig TRPM8 = molecular target: T2, pig TRPM8 (Sus scrofa, UniProt F1SM15); assay: In vitro pig TRPM8 fluorescence calcium flux assay (recombinant CHO cells, Fluo4-AM, FDSS6000); assay type: cell-based; settings: recombinant CHO cells expressing pig TRPM8; menthol-related EC50, normalized to 100 μM menthol
T2 construct: expressed in transfected cells; host or cells: CHO (pcDNA5/FRT/TO vector; hygromycin B and blasticidin selection)
Description: as §1, §2, §3, §4

T1 sequence (Q7Z2W7 whole entry): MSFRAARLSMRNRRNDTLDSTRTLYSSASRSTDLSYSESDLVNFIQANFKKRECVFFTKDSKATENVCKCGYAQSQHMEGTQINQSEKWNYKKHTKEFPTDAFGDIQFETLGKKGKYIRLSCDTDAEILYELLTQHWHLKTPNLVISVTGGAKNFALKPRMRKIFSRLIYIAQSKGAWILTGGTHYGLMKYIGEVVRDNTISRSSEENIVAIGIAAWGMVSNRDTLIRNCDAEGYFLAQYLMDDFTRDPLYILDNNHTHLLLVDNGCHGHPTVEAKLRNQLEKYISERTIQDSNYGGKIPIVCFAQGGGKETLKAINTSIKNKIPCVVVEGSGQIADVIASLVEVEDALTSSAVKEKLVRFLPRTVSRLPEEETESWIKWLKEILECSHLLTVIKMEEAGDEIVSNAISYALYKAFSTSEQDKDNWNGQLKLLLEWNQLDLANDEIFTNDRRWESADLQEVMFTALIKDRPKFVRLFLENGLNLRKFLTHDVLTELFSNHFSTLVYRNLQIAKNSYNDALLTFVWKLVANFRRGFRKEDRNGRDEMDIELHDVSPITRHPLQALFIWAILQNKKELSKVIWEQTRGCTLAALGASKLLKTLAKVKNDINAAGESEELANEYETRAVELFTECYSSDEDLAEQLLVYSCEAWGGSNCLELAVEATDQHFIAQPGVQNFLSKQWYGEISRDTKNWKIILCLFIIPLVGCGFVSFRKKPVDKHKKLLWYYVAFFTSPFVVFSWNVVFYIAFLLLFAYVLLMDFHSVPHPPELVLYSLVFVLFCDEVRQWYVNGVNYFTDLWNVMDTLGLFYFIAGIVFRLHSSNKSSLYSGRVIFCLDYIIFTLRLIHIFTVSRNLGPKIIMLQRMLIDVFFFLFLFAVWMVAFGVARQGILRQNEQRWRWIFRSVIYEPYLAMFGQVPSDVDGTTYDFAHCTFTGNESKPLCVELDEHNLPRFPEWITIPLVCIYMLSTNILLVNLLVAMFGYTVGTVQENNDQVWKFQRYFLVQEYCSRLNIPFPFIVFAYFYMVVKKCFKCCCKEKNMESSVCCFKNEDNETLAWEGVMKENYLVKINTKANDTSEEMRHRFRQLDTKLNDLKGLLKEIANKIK
T2 sequence (F1SM15 1-1104): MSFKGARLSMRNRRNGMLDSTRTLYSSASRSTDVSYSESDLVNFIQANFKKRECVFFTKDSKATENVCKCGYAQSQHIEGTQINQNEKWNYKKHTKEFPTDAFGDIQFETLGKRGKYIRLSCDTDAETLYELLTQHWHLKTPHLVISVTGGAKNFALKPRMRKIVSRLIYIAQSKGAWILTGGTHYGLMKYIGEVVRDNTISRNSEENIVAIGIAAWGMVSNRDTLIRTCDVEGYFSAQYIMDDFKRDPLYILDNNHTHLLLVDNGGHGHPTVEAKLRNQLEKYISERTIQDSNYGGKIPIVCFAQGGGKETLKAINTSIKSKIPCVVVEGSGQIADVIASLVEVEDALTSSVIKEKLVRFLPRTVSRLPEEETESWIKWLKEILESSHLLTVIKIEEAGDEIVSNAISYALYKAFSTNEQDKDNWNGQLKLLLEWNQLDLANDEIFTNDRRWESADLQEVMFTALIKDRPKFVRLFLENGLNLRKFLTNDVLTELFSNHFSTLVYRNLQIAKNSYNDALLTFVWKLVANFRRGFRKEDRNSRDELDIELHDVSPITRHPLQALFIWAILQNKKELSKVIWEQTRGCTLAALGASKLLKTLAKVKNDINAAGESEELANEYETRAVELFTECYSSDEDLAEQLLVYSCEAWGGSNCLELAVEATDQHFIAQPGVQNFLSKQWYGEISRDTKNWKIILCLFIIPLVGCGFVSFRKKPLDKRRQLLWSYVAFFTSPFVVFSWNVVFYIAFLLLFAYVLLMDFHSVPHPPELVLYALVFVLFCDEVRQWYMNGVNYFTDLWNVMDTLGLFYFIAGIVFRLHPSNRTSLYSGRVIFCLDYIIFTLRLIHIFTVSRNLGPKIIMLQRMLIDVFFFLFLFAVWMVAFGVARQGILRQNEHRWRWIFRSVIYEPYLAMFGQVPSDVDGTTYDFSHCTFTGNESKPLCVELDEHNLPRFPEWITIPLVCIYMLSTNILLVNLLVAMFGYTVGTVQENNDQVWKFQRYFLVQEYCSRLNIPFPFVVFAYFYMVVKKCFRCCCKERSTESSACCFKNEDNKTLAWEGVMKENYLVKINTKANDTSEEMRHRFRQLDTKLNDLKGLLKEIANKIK

Row | Structure (SMILES) | EC50 (human TRPM8) [nM] | EC50 (pig TRPM8) [nM]
1 | CC(C)[C@@H]1CC[C@@H](C)C[C@@]1(O)C(=O)NCC1OC(=O)c2ccccc21 (mixture of isomers) [Example 17, (1S,2S,5R)-1-hydroxy-2-isopropyl-5-methyl-N-(((1RS)-3-oxo-1,3-dihydroisobenzofuran-1-yl)methyl) cyclohexane-1-carboxamide] | 410 | 191
2 | CC(C)[C@@H]1CC[C@@H](C)C[C@@]1(O)C(=O)NCC1OC(=O)c2ccccc21 (mixture of isomers) [Example 18, (1S,2S,5R)-1-hydroxy-2-isopropyl-5-methyl-N-(((1RS)-3-oxo-1,3-dihydroisobenzofuran-1-yl)methyl) cyclohexane-1-carboxamide] | 757 | 242
3 | CC(C)[C@@H]1CC[C@@H](C)C[C@@]1(O)C(=O)NCC1(O)CCCc2ccccc21 (mixture of isomers) [Example 177, (1S,2S,5R)-1-hydroxy-N-(((1RS)-hydroxy-1,2,3,4-tetrahydronaphthalen-1-yl)methyl)-2-isopropyl-5-methylcyclohexane-1-carboxamide] | 3.6 | 3.4
4 | CC(C)[C@@H]1CC[C@@H](C)C[C@@]1(O)C(=O)NCC(O)(c1ccccc1)C(F)(F)F (single isomer, unassigned) [Example 82] | 332 | 486
5 | CC(C)[C@@H]1CC[C@@H](C)C[C@@]1(O)C(=O)NCC(O)(c1ccccc1)C(F)(F)F (single isomer, unassigned) [Example 83] | 168 | 136
6 | [2H]C(O)(CNC(=O)[C@]1(O)C[C@H](C)CC[C@H]1C(C)C)c1ccccc1 (single isomer, unassigned) [Example 91] | 19 | 5.2
7 | [2H]C(O)(CNC(=O)[C@]1(O)C[C@H](C)CC[C@H]1C(C)C)c1ccccc1 (single isomer, unassigned) [Example 92] | 4.1 | 2.3
8 | CC(C)[C@@H]1CC[C@@H](C)C[C@@]1(O)C(=O)NCC1OCCc2ccccc21 (single isomer, unassigned) [Example 97] | 11.1 | 29.2
9 | CC(C)[C@@H]1CC[C@@H](C)C[C@@]1(O)C(=O)NCC1OCCc2ccccc21 (single isomer, unassigned) [Example 98] | 52.8 | 64.7
10 | CC(C)[C@@H]1CC[C@@H](C)C[C@@]1(O)C(=O)NCC1(O)CCc2ccccc21 (single isomer, unassigned) [Example 175] | 43 | 535
11 | CC(C)[C@@H]1CC[C@@H](C)C[C@@]1(O)C(=O)NCC1(O)CCc2ccccc21 (single isomer, unassigned) [Example 176] | 1.1 | 1.3
12 | CC(C)[C@@H]1CC[C@@H](C)C[C@@]1(O)C(=O)NCC(NC(=O)[C@H](C)N)c1ccccc1 (single isomer, unassigned) [Example 181] | 22.5 | 61.4
13 | COC[C@H](NC(=O)[C@]1(O)C[C@H](C)CC[C@H]1C(C)C)C(O)c1ccccc1 (stereo in doubt) [Example 122, (1S,2S,5R)-1-hydroxy-N-[(1S,2S)-2-hydroxy-1-(methoxymethyl)-2-phenyl-ethyl]-2-isopropyl-5-methyl-cyclohexanecarboxamide] | 7510 | 749
14 | CC(C)[C@@H]1CC[C@@H](C)C[C@@]1(O)C(=O)NCCc1nc2ccccc2[nH]1 [Example 8, (1S,2S,5R)—N-(2-(1H-benzo[d]imidazol-2-yl)ethyl)-1-hydroxy-2-isopropyl-5-methylcyclohexane-1-carboxamide 2-hydroxypropane-1,2,3-tricarboxylate] | 1510 | 713
15 | Cc1cccc(C(O)CNC(=O)[C@]2(O)C[C@H](C)CC[C@H]2C(C)C)c1 (stereo partly drawn) [Example 12, (1S,2S,5R)-1-hydroxy-N-(2-hydroxy-2-(m-tolyl)ethyl)-2-isopropyl-5-methylcyclohexane-1-carboxamide] | 3 | 2
16 | Cc1oc(=O)oc1COC(=O)c1cccc(CCNC(=O)[C@]2(O)C[C@H](C)CC[C@H]2C(C)C)c1 [Example 29, (5-methyl-2-oxo-1,3-dioxol-4-yl)methyl 3-(2-((1S,2S,5R)-1-hydroxy-2-isopropyl-5-methylcyclohexane-1-carboxamido)ethy) benzoate] | 211 | 221
17 | Cc1cccc([C@@H](O)CNC(=O)[C@]2(O)C[C@H](C)CC[C@H]2C(C)C)c1 [Example 45, (1S,2S,5R)-1-hydroxy-N-((2R)-hydroxy-2-(m-tolyl)ethyl)-2-isopropyl-5-methylcyclohexane-1-carboxamide] | 48.5 | 18.2
18 | Cc1cccc([C@H](O)CNC(=O)[C@]2(O)C[C@H](C)CC[C@H]2C(C)C)c1 [Example 46, (1S,2S,5R)-1-hydroxy-N-((2S)-hydroxy-2-(m-tolyl)ethyl)-2-isopropyl-5-methylcyclohexane-1-carboxamide] | 11.9 | 4.6
19 | CC(C)[C@@H]1CC[C@@H](C)C[C@@]1(O)C(=O)N[C@@H](CO)Cc1ccccc1 [Example 47, (1S,2S,5R)-1-hydroxy-N-((2R)-1-hydroxy-3-phenylpropan-2-yl)-2-isopropyl-5-methylcyclohexane-1-carboxamide] | 641 | 586
20 | Cc1ccccc1CCNC(=O)[C@]1(O)C[C@H](C)CC[C@H]1C(C)C [Example 59, (1S,2S,5R)-1-hydroxy-2-isopropyl-5-methyl-N-(2-methylphenethyl)cyclohexane-1-carboxamide] | 6.2 | 4.3
21 | Cc1ccc(CCNC(=O)[C@]2(O)C[C@H](C)CC[C@H]2C(C)C)cc1 [Example 60, (1S,2S,5R)-1-hydroxy-2-isopropyl-5-methyl-N-(4-methylphenethyl)cyclohexane-1-carboxamide] | 43.5 | 7.1
22 | CC(C)[C@@H]1CC[C@@H](C)C[C@@]1(O)C(=O)NC[C@@H](NC(=O)[C@@H](C)N)c1ccccc1 [Example 62, (1S,2S,5R)—N—((S)-2-((R)-2-aminopropanamido)-2-phenylethyl)-1-hydroxy-2-isopropyl-5-methylcyclohexane-1-carboxamide] | 1.6 | 2.3
23 | COC(=O)CC(CNC(=O)[C@]1(O)C[C@H](C)CC[C@H]1C(C)C)c1ccccc1 (stereo partly drawn) [Example 65, methyl 4-((1S,2S,5R)-1-hydroxy-2-isopropyl-5-methylcyclohexane-1-carboxamido)-3-phenyl butanoate] | 353 | 729
24 | COC(=O)CCOc1ccccc1CCNC(=O)[C@]1(O)C[C@H](C)CC[C@H]1C(C)C [Example 75, methyl 3-(2-(2-((1S,2S,5R)-1-hydroxy-2-isopropyl-5-methylcyclohexane-1-carboxamido)ethyl)phenoxy)propanoate] | 84 | 109
25 | CC(C)[C@@H]1CC[C@@H](C)C[C@@]1(O)C(=O)NCC(=O)Oc1cc(O)cc(O)c1 [Example 76, 3,5-dihydroxyphenyl ((1S,2S,5R)-1-hydroxy-2-isopropyl-5-methylcyclohexane-1-carbonyl)glycinate] | 501 | 365
26 | COC(=O)Cc1ccccc1CCNC(=O)[C@]1(O)C[C@H](C)CC[C@H]1C(C)C [Example 77, methyl 2-(2-(2-((1S,2S,5R)-1-hydroxy-2-isopropyl-5-methylcyclohexane-1-carboxamido)ethyl)phenyl)acetate] | 90 | 93
